Assay results taken from US10604514B2, “6-(5-membered heteroaryl)isoquinolin-3-yl carboxamides and preparation and use thereof” (Samumed, LLC, priority 2017, dated 2020).

Columns and labels:
[1] = test system: Wnt activity (Sp5-Luc reporter in SW480 colon carcinoma cells); assay: Wnt activity screening assay (Sp5-Luc reporter gene assay); type: cell-based, human; conditions: Homo sapiens; Sp5-Luc reporter, SW480 cells, 36 to 48 hours
How it was run: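 SW480 cells stably carrying an Sp5 promoter (eight TCF/LEF sites)-firefly luciferase reporter were plated in DMEM with 1% FBS and treated with a 10-point, 1:3 dilution series from 10 μM (0.1% DMSO) for 36 to 48 h at 37° C. Luminescence was normalized to DMSO controls, and EC50 came from four-parameter nonlinear regression.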

[2] = test system: Tau phosphorylation at Ser396 (pSer396), SH-SY5Y cells; assay: Tau phosphorylation at Ser396 (pSer396) in SH-SY5Y cells, ELISA/western blot; type: cell-based, human; conditions: Homo sapiens; SH-SY5Y cells, overnight (16-18 h); read-out: pSer396 Tau EC50;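 also: cell lysates probed for reduced Tau pSer396 via ELISA (colorimetric) or western blot (chemiluminescence), both with one shared pSer396 antibody, EC50 for lowering phosphorylation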
GSK3β kinase = GSK3β kinase (Homo sapiens (Human), UniProt P49841); assay: GSK3β kinase assay (Ser/Thr 09 peptide Z-lyte, FRET); type: biochemical; conditions: method text calls the value IC50;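 also: Coumarin/fluorescein emission ratio converted to percent phosphorylation against unphosphorylated (0%) and phosphorylated (100%) controls, 1 h compound incubation at room temperature, 11-point threefold dilutions from 10 µM, run in duplicate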
[3] = test system: SW480 colon carcinoma cells; assay: Cell viability assay (CellTiter-Glo) in SW480 cells; type: cell-based, human; conditions: Homo sapiens, 96 h; cell viability, SW480 cells, four days, CellTiter-Glo;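 also: SW480 cells stably carrying an Sp5-luciferase TCF/LEF reporter, luminescent ATP signal as viability measure, DMSO-treated cells as control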
DYRK1A kinase = DYRK1A kinase (Homo sapiens (Human), UniProt Q13627); assay: DYRK1A kinase assay (Ser/Thr 18 peptide Z-lyte, FRET)
IL-6 = IL-6 inhibition in LPS-stimulated human peripheral blood mononuclear cells (HTRF); type: cell-based; conditions: Homo sapiens, PBMC; IL-6, LPS-stimulated huPBMCs, HTRF
How it was run: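 Fresh human PBMCs (5000 cells/well, 1% FBS RPMI) preincubated with compound (10-point 1:3 series from 10 μM, 0.25% DMSO) 2 h at 37 °C, then stimulated with 50 ng/mL E. coli LPS for 22 h. IL-6 by HTRF 665/620 ratio; DMSO-normalized, EC50 from 4-parameter fit.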

[4] = test system: LL29 cells (primary human fibroblasts derived from IPF patients), α-smooth muscle actin; assay: Inhibition of fibrotic process: αSMA in TGF-β1-treated primary human fibroblasts from IPF patients (LL29 cells); type: cell-based; conditions: Homo sapiens, Fibroblast, 96 h; % αSMA-positive LL29 cells, TGF-β1 20 ng/mL, 4 days
How it was run: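 IPF-patient lung fibroblasts (LL29) were stimulated with TGF-β1 (20 ng/mL) in 1% FBS medium with compound (11-point 1:2 series, 0.1% DMSO) for 4 days at 37 °C. Fixed cells were immunostained for αSMA and imaged, excluding SYTOX-positive dead cells. The % αSMA-positive cells was normalized to TGF-β1/DMSO control wells.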

GSK3β kinase, sequence (P49841 whole entry): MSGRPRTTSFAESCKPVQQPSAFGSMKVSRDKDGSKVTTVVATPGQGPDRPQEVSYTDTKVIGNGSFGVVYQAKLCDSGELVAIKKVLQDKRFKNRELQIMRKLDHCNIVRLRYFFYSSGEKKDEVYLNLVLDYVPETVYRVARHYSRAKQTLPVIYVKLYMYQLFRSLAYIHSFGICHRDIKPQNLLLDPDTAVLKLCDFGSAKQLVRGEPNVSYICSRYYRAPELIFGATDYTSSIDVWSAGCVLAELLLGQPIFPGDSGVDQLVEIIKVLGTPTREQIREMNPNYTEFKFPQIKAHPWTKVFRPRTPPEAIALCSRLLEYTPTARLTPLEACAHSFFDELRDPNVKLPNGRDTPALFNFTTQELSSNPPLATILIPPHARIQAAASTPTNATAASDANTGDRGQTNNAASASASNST

Structure (SMILES) | EC50 [1] [nM] | EC50 [2] [nM] | EC50 (GSK3β kinase) [nM] | EC50 [3] [nM] | EC50 (DYRK1A kinase) [nM] | EC50 (IL-6) [nM] | EC50 [4] [nM]
[2H]c1c([2H])c(C([2H])([2H])[2H])c([2H])c([2H])c1C(=O)Nc1cc2cc(-c3cncn3C)ccc2cn1 [Compound 86, 4-(Methyl-d3)-N-(6-(1-methyl-1H-imidazol-5-yl)isoquinolin-3-yl) benzamide-2,3,5,6-d4] | 350 | 3040 | 1740 | 515 | 2 | 2170 | 556
[2H]C([2H])([2H])Oc1ccc(C(=O)Nc2cc3cc(-c4cncn4C)ccc3cn2)cc1 [Compound 87, 4-(Methoxy-d3)-N-(6-(1-methyl-1H-imidazol-5-yl)isoquinolin-3-yl) benzamide] | 214 | 896 | 1450 | 489 | 3 | 1170 | 132
[2H]c1c([2H])c(C(=O)Nc2cc3cc(-c4cncn4C)ccc3cn2)c([2H])c([2H])c1OC([2H])([2H])[2H] [Compound 88, 4-(Methoxy-d3)-N-(6-(1-methyl-1H-imidazol-5-yl)isoquinolin-3-yl) benzamide-2,3,5,6-d4] | 179 | 16 | 1010 | 480 | 2 | 1200 | 311
[2H]c1c([2H])c([2H])c(/C=C/C(=O)Nc2cc3cc(-c4cnc(C)n4C)ccc3cn2)c([2H])c1[2H] [Compound 90, (E)-N-(6-(1,2-Dimethyl-1H-imidazol-5-yl)isoquinolin-3-yl)-3-(phenyl-2,3,4,5,6-d5)acrylamide] | 159 | 171 | 388 | 312 | 4 | 606 | 299
[2H]/C(C(=O)Nc1cc2cc(-c3cnc(C)n3C)ccc2cn1)=C(/[2H])c1c([2H])c([2H])c([2H])c([2H])c1[2H] [Compound 91, (E)-N-(6-(1,2-Dimethyl-1H-imidazol-5-yl)isoquinolin-3-yl)-3-(phenyl-2,3,4,5,6-d5)acrylamide-2,3-d2] | 197 | 68 | 454 | 314 | 5 | 679 | 289
[2H]C([2H])(C(=O)Nc1cc2cc(-c3cnc(C)n3C)ccc2cn1)c1ccc(F)cc1 [Compound 92, N-(6-(1,2-Dimethyl-1H-imidazol-5-yl)isoquinolin-3-yl)-2-(4-fluorophenyl) acetamide-2,2-d2] | 3140 | 769 | 66 | 4080 | 10 | 3180 | 2710

Continued by falling EC50 [1], values first:

EC50 [1] [nM] | EC50 [2] [nM] | EC50 (GSK3β kinase) [nM] | EC50 [3] [nM] | EC50 (DYRK1A kinase) [nM] | EC50 (IL-6) [nM] | Structure (SMILES) | EC50 [4] [nM]
155 | 594 | 533 | 480 | 2 | 1050 | [2H]c1c([2H])c(C(=O)Nc2cc3cc(-c4cncn4C)ccc3cn2)c([2H])c([2H])c1OC [Compound 89, 4-Methoxy-N-(6-(1-methyl-1H-imidazol-5-yl)isoquinolin-3-yl)benzamide-2,3,5,6-d4] | 190
88 | 244 | 276 | 104 | 2 | 319 | [2H]/C(C(=O)Nc1cc2cc(-c3cncn3C)ccc2cn1)=C(/[2H])c1c([2H])c([2H])c([2H])c([2H])c1[2H] [Compound 94, (E)-N-(6-(1-Methyl-1H-imidazol-5-yl)isoquinolin-3-yl)-3-(phenyl-2,3,4,5,6-d5)acrylamide-2,3-d2] | 125
67 | 259 | 238 | 98 | 2 | 280 | [2H]c1c([2H])c([2H])c(/C=C/C(=O)Nc2cc3cc(-c4cncn4C)ccc3cn2)c([2H])c1[2H] [Compound 93, (E)-N-(6-(1-methyl-1H-imidazol-5-yl)isoquinolin-3-yl)-3-(phenyl-2,3,4,5,6-d5)acrylamide] | 145
